Data set [1] is described as follows: Sedation study, total distance traveled. As to conditions: CF-1 mice.
A short description of data set [2]: Sub-chronic toxicity, morphological parameters of blood (neutrophil kinetics). The class given is in vivo. As to conditions: rats, intragastric 5 mg/kg daily for 28 days. The text has this:
The positive effect of the introduction of fluorine has been observed in pre-clinical studies of sub-chronic toxicity. […]. Increase in the number of neutrophils has been observed among rats after administration of aminoglutethimide, which also involves a high risk of agranulocytosis (Ng, W. et. al., Chem Res Toxicol, 2013, 26, 1272-81). Thus changes in the kinetics of neutrophils after intake of the medication can serve as a biomarker to predict the risk of agranulocytosis.
The neutrophil kinetics has been studied within comparative tests of sub-chronic toxicity. Studies have been conducted using rats upon intragastric administration of the substance at a dose of 5 mg/kg. The test substances were administered daily for 28 days. Each experimental group was composed of 10 animals of each sex.

The conditions of data set [3]: Leucht et al., Lancet 2013; cited from earlier work.
Data set [4] can be described thus: 5-oxytriptophan hyperkinesia (head twitches). To be noted: mice, intragastric 1.0-10.0 mg/kg, 5-oxytriptophan 300 mg/kg i.p. The class given is in vivo. The procedure:
It is known that the precursor of serotonin (5-oxytriptophan, 5-OT) causes a specific hyperkinesia in mice in the form of head-twitching with average duration of 30-60 minutes, which is explained by the activation of serotonergic system of the CNS. […] Each experimental group included 10 male mice weighing 20-22 g. The test substances were administered intragastrically at 1.0, 2.5, 5.0 and 10.0 mg/kg 30 minutes before the intraperitoneal administration of 5-oxytriptophan at a dose of 300 mg/kg. We counted the number of head twitches per 1 minute at intervals of 10 minutes during 60 minutes.

The conditions of data set [5]: cited from earlier work.
For data set [6], the target named is H4 receptor (Homo sapiens, UniProt Q9H3N8). The data set can be described thus: H4 histamine receptor functional experiment, agonism set-up (cell conductibility). Type of data set: cell-based. On the procedure: (§1) The functional activity of compounds on the H4 receptor was determined according to the change in the cell conductibility induced by redistribution of intracellular calcium. The activity for H1 receptor was determined according to the fluorescence of Fluo-4 NW indicator introduced into cells induced by the change in Ca2+ ion concentration in the cytosol.
(§2) Functional experiments were performed in the set-up of agonism and antagonism. In the set-up of agonism the test substance was added directly to the cells expressing the receptor and was determined as the dependence of the response intensity on the substance concentration. Concentration at which the half-peak response (EC50) could be reached served as a measure of activity of agonists.
(§3) In the set-up of antagonism, the ability of test substances to block the action of agonists was assessed. For this purpose, cells were incubated with the test substances, then the reference agonists were added in the system and the functional response was determined.

The target in data set [7] is H1 receptor (Homo sapiens, UniProt P35367). In words: H1 histamine receptor functional experiment, antagonism set-up (Fluo-4 NW Ca2+ fluorescence). The class given is cell-based. On the procedure:
as §1, §2, §3

In data set [8] the target is D2 dopamine receptors (Homo sapiens, UniProt P14416). In words: cell-based. As to conditions: determined by IC50 values in the set-up of antagonism. The procedure: (§4) The response on cells expressing D2 receptors was determined according to the change in the cell conductibility induced by redistribution of intracellular calcium. For D4 receptor the level of second messenger—cAMP was taken as the criterion.

Data set [9] addresses T1, D4 dopamine receptors (Homo sapiens, UniProt P21917).
T1 sequence (P21917 1-419): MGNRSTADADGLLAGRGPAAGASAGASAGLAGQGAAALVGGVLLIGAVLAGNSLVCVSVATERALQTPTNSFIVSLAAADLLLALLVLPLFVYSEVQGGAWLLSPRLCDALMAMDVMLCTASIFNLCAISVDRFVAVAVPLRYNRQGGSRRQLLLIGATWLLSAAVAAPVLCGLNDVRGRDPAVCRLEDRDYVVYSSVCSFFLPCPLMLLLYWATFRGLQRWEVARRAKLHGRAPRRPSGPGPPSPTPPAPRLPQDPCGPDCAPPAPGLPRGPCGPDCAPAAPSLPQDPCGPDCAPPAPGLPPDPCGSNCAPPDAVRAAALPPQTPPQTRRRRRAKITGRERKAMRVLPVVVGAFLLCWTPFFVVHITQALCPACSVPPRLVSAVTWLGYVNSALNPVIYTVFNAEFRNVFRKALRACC
The data set can be described thus: D4 dopamine receptor antagonism, Kb from IC50 (cAMP level). The class given is cell-based. As to conditions: for Kb: determined by IC50 values in the set-up of antagonism; for Therapeutic window (Kb, D2/Kb, D4): ratio of the applicant's Kb values. The procedure:
as §4
(In general: cAMP levels reflect the balance of adenylyl cyclase and phosphodiesterase activity.)

Data set [10] addresses T2, M1 receptors (Homo sapiens, UniProt P11229).
T2 sequence (P11229 1-460): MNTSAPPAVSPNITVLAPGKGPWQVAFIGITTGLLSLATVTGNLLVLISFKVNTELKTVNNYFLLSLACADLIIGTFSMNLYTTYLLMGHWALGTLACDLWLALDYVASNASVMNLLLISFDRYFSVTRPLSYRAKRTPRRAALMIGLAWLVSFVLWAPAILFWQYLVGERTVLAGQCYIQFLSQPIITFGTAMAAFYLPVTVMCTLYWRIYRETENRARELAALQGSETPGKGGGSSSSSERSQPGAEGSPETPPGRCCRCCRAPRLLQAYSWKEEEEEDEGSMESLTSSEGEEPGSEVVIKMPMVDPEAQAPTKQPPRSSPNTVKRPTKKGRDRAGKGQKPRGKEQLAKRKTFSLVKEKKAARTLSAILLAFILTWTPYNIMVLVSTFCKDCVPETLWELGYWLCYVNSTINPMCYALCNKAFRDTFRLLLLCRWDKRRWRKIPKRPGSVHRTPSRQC
In words: M1 receptor activation functional study (Fluo-4 NW Ca2+ fluorescence). To be noted: concentration-response curves, FIG. 2. The class given is cell-based. The procedure:
The activity was determined according to the fluorescence of Fluo-4 NW indicator introduced into cells induced by the change in Ca2+ ion concentration in the cytosol.

Data set [11] addresses T3, M4 muscarinic receptor (Homo sapiens, UniProt P08173).
T3 sequence (P08173 1-479): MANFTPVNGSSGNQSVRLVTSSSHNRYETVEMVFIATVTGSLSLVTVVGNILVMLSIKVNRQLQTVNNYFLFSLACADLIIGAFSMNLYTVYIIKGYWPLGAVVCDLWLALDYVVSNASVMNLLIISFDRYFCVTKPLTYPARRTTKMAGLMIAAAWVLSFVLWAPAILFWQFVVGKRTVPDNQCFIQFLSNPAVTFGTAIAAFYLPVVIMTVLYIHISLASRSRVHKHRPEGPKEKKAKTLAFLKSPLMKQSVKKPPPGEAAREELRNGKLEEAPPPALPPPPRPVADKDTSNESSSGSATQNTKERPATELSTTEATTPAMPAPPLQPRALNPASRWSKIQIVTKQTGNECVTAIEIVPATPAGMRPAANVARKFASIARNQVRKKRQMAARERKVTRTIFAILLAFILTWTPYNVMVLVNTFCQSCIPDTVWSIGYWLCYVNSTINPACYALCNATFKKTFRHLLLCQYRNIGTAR
The data set can be described thus: cell-based. The procedure: as §2, §3
The curves of dependence of functional response on the concentration of compounds for the receptor were made; the level of second messenger—cAMP determined according to the fluorescence after the lysis of cell expressing the receptor was taken as a criterion.

Data set [12] is described as follows: Metabolism and distribution of fluoroclozapine in tissues. To be noted: rats, single oral fluoroclozapine 10 mg/kg.
For data set [13], the system named is family of adrenergic receptors. In words: Panel of G-protein-coupled receptors, adrenergic receptors. As to conditions: GPCR panel. From the text: In conjunction with the results of preliminary toxicological studies, the data indicates a reduction in the risk of autonomic dysfunctions, such as tachysystole, orthostatism, accommodation disorder, dysfunction of gastrointestinal tract and urination, weight gain, lack of coordination of muscle movements.

The EC50 is the midpoint of the concentration-response curve. Read a high EC50 as a less potent agent. The IC50 is the concentration that gives 50% inhibition. The low end stands for higher potency, the high end for lower potency. A word on the Kb: it is the equilibrium dissociation constant of an antagonist, usually derived from a functional assay.

Molecules are shown by their SMILES.

H4 receptor, sequence (Q9H3N8 whole entry): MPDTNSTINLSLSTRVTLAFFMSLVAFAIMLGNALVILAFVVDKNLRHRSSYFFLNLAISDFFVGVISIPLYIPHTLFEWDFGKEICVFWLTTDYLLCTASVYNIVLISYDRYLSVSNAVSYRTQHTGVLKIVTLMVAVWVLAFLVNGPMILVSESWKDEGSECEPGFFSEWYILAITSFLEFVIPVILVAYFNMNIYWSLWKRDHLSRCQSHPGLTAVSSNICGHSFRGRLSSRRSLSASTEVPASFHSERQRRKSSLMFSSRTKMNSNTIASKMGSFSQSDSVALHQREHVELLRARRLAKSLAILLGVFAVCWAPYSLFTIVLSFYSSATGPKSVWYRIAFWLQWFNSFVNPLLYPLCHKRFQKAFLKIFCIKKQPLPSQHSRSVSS
H1 receptor, sequence (P35367 whole entry): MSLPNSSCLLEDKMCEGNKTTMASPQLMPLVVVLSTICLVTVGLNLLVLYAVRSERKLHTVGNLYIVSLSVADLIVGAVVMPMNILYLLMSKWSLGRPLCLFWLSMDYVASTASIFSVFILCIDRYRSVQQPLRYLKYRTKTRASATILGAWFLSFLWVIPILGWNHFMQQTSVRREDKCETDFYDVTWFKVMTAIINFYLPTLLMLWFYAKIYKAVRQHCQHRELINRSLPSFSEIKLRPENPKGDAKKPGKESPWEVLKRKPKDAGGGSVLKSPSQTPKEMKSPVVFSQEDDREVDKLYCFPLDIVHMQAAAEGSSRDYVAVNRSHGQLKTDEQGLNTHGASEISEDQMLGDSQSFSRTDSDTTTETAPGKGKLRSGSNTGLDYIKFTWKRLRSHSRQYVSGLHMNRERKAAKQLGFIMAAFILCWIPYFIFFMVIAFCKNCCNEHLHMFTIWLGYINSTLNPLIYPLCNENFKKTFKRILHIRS
D2 dopamine receptors, sequence (P14416 whole entry): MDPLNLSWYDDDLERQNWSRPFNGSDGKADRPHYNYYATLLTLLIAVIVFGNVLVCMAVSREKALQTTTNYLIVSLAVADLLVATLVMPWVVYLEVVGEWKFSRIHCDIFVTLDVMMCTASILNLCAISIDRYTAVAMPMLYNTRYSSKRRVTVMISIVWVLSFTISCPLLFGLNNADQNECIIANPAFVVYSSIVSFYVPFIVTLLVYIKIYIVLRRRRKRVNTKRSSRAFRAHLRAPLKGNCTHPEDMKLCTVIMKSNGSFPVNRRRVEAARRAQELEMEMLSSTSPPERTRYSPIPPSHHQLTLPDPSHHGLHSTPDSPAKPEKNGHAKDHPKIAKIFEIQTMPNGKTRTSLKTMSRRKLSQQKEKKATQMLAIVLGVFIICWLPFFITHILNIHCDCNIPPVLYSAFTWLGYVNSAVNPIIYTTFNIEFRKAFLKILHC

As to `CN1CCN(C2=Nc3cc(Cl)ccc3Nc3ccccc32)CC1` [Clozapine, reference compound], in data set [1] (oral 1, 5 and 10 mg/kg), the “Sedation: total distance traveled by animals” value is recorded as “significantly reduced”. In data set [2], this compound gave a Basophils of 0.6 ± 0.3%, an ESR of 3.8 ± 0.4 mm/h, an Eosinophils of 1.0 ± 0.5% and a Hemoglobin of 154.6 ± 1.9 g/L. Further, in data set [2], the Ht is recorded as 43.3 ± 0.5%, the Lymphocytes was determined as 66.6 ± 2.8%, the MCH was 18.4 ± 0.1 pg and the MCHC was found to be 357.4 ± 1.9 g/L. In data set [2], this compound showed an MCV of 51.6 ± 0.2 fL, a Metamyelocytes of 0.0 ± 0.0%, a Monocytes of 6.4 ± 0.9% and a Myelocytes of 0.0 ± 0.0%. For the same compound, in data set [2], the “Number of circulating neutrophils in peripheral blood versus control group” value was “significant increase in the number of circulating neutrophils”, the PLT count is given as 617.6 ± 43.2 10^9/l, the Plasma cells worked out at 0.0 ± 0.0% and the RBC count is 8.39 ± 0.06 10^12/l. Further, in data set [2], the Rt is 80.8 ± 4.1 10^9/l, the Segmented neutrophils is 21.2 ± 2.0%, the Stab neutrophiles was determined as 4.6 ± 0.7 % and the WBC count is on record as 11.6 ± 1.1 10^9/l. Further, the “Increase in the risk of sedation” value in [3] is 8.8 times. Further, the “Inhibition of twitches induced by 5-OT” value in [4] is “most evident inhibition of twitches”. In addition, the “Patients resistant to typical neuroleptics in whom positive symptoms are weakened” value in data set [5] (human, in vivo) is recorded as 30-60%. Also, in [5] (long-term use), the “Patients with treatment-resistant schizophrenia whose condition improves” value is recorded as 60%.

In turn, `Clc1ccc2c(c1)N=C(N1CCNCC1)c1ccccc1N2` [Desmethylclozapine, N-desmethylclozapine, reference compound] displayed an EC50 in data set [6] of 2100 nM. The compound also yielded a concentration for half-maximal inhibition (IC50) in data set [7] of 15 nM. Also, the antagonist equilibrium constant (Kb) in data set [8] came to 52 nM. In data set [9], the antagonist dissociation constant (Kb) came out at 190 nM and the “Therapeutic window (Kb, D2/Kb, D4)” value is reported as 0.27.

With `Fc1cc2c(cc1Cl)N=C(N1CCNCC1)c1ccccc1N2` [Desmethylfluoroclozapine, 11-(piperazine-1-yl)-7-fluoro-8-chloro-5H-dibenzo[b,e][1,4]diazepine], in data set [10], the “Functional response on M1 receptor (agonism)” value was “is an agonist and causes a significant response in the therapeutic concentration range”. In addition, in data set [11] (M4, agonism), the “Activating concentration relative to that of norclozapine” value is 30 times. In [11] (M4, agonism set-up), this compound gave a half-maximal effective concentration (EC50) of 3200 nM. Also, in [11] (M4, antagonism set-up), the concentration for half-maximal inhibition (IC50) was above 10000 nM. Moreover, the “Concentrations of parent and metabolite in the brain” value in data set [12] was “consistent”. Moreover, the “Sedation: decrease in motor activity” value in data set [1] (oral, dose of 10 mg/kg) is given as “negligible decrease in motor activity”. In data set [2], the Basophils worked out at 0.6 ± 0.3%, the ESR is 4.2 ± 0.4 mm/h, the Eosinophils is recorded as 1.0 ± 0.5% and the Hemoglobin is 153.4 ± 2.4 g/L. In [2], this compound gave a Ht of 42.5 ± 0.5%, a Lymphocytes of 66.6 ± 2.8%, an MCH of 18.4 ± 0.1 pg and an MCHC of 360.8 ± 2.2 g/L. In [2], this compound returned an MCV of 50.9 ± 0.2 fL, a Metamyelocytes of 0.0 ± 0.0%, a Monocytes of 6.2 ± 1.0% and a Myelocytes of 0.0 ± 0.0%. In data set [2], the “Number of circulating neutrophils in peripheral blood versus control group” value is listed as “did not differ so much different from that of the control group”, the PLT count is 653.4 ± 29.8 10^9/l, the Plasma cells is recorded as 0.0 ± 0.0% and the RBC count was 8.35 ± 0.07 10^12/l. Also, in data set [2], the Rt is recorded as 75.6 ± 3.1 10^9/l, the Segmented neutrophils was 21.4 ± 1.7%, the Stab neutrophiles was determined as 4.2 ± 0.4% and the WBC count is given as 11.7 ± 0.9 10^9/l. This compound displayed an EC50 in data set [6] of 2000 nM. For the same compound, the “Activity in relation to adrenergic receptors” value in data set [13] was “relatively weak activity”. The IC50 in data set [7] amounted to 61 nM. The compound further registered a Kb in data set [8] of 550 nM. In data set [9], the antagonist dissociation constant (Kb) came to 350 nM and the “Therapeutic window (Kb, D2/Kb, D4)” value worked out at 1.6.

Consider `OCCOCCN1CCN(C2=Nc3ccccc3Sc3ccccc32)CC1` [Quetiapine, quetiapine], for which the “Increase in the risk of sedation” value in [3] was 3.7 times.

Values taken from patent publication US10391101B2, “Derivatives of 7-fluoro-8-chloro-5H-dibenzo [B,E,] [1,4] diazepine and use thereof” (VALENTEK LLC, priority 2014, dated 2019).
